Data on three molecules can be found in patent US20260144739A1, “A SKIN BRIGHTENING COMPOSITION” (Conopco, Inc., d/b/a UNILEVER, priority 2022, published 2026).

Data set [1] relates to Co-cultures of HaCat keratinocytes and primary human melanocytes. Kind of data set: Melanin content assay (% melanin reduction) in keratinocyte + melanocyte co-cultures. The class given is cell-based. The conditions noted are these: 72 hrs treatment; melanin (405 nm) corrected for cell numbers (MC/Calcein); vs DMSO control; actives in wt % as per example; fermented oil samples diluted 1:40. How it is done: Various samples containing actives were prepared and the % melanin reduction was measured. The protocol for measuring the melanin reduction is summarized below:
Co-cultures of HaCat keratinocytes and primary human melanocytes were mixed at 40,000 each (1:1 ratio) in 1 ml of a 1:1 mix of their respective culture medium and seeded as such per well, in 12 well plates. After 24 hrs, cultures were treated with various concentrations of the test materials shown in table 1 and left undisturbed for a further period of 72 hrs. Comparative vehicle control was also set up simultaneously. For melanin estimation at the end of the 72 hrs incubation, cell viability was first determined using the Calcein AM method. Briefly, spent media was removed and cells were washed once with 0.4 ml of 1×PBS/well. Fresh 1 μM calcein-AM in PBS buffer was added to each well, including control wells without cells. Plates were covered with aluminium foil and incubated for 30 mins at 37° C. in a CO2 incubator. Calcein fluorescence was measured (excitation at 490 nm and emission at 520 nm) in a TECAN M1000 plate reader. Culture wells were drained and lysed using 1N NaOH containing 10% DMSO and placed for 1 hour at 60° C. in a shaker incubator. 100 μl of the supernatant was transferred to a 384 well plate and melanin was measured in a TECAN plate reader (405 nm filter). […]

Data set [2] shares this test system. Kind of data set: Cell viability by the Calcein AM method in the co-cultures. The class given is cell-based. The conditions noted are these: 4-HR at concentrations higher than 0.0002%, at the cellular level in invitro experiments. How it is done: Co-cultures of HaCat keratinocytes and primary human melanocytes were mixed at 40,000 each (1:1 ratio) in 1 ml of a 1:1 mix of their respective culture medium and seeded as such per well, in 12 well plates. After 24 hrs, cultures were treated with various concentrations of the test materials shown in table 1 and left undisturbed for a further period of 72 hrs. Comparative vehicle control was also set up simultaneously. For melanin estimation at the end of the 72 hrs incubation, cell viability was first determined using the Calcein AM method. Briefly, spent media was removed and cells were washed once with 0.4 ml of 1×PBS/well. Fresh 1 μM calcein-AM in PBS buffer was added to each well, including control wells without cells. Plates were covered with aluminium foil and incubated for 30 mins at 37° C. in a CO2 incubator. Calcein fluorescence was measured (excitation at 490 nm and emission at 520 nm) in a TECAN M1000 plate reader. Culture wells were drained and lysed using 1N NaOH containing 10% DMSO and placed for 1 hour at 60° C. in a shaker incubator. 100 μl of the supernatant was transferred to a 384 well plate and melanin was measured in a TECAN plate reader (405 nm filter). Melanin content (MC) was expressed after correction for cell numbers (MC/Calcein) and represented as % melanin.

`CCCCCCc1ccc(O)cc1O` [C]: the “% melanin reduction” value in data set [1] is reported as 3%.

For `CCCCCCc1ccc(O)cc1O` [Example 4-HR, 4-hexyl resorcinol], the cell viability result in data set [2] is “leads to cell viability problems”. On to `CCCCCCc1ccc(O)cc1O` [B], for which, in data set [1], the “% melanin reduction” value was 23%.
